# Source: patent publication EP0105872B1, “NOVEL COSMETIC COMPOSITIONS CONTAINING PRENYLAMINE AND A PROCESS FOR THEIR PREPARATION” (CAOLA KOZMETIKAI ES HAZTARTÄSVEGYIPARI VALLALAT, priority 1982, dated 1983)
# Key:
# Fungi = conditions: cited from earlier work
# Gram-positive = conditions: cited from earlier work
# Gram-negative = conditions: cited from earlier work
# Yeast = conditions: cited from earlier work
# [1] = tested on: Streptococcus haemolyticus; assay: Minimum inhibition concentration of prenilamine; assay type: cell-based
# Solubility in water = assay type: physicochemical
# Neisseria pharingis = assay: Minimum inhibition concentration of prenilamine; assay type: cell-based
# Staphylococcus epidermis = assay: Minimum inhibition concentration of prenilamine; assay type: cell-based
# Listeria monocytogenes = assay: Minimum inhibition concentration of prenilamine; assay type: cell-based
# [2] = tested on: Lactobacillus acidophilus; assay: Minimum inhibition concentration of prenilamine; assay type: cell-based
# Staphylococcus aureus = assay: Minimum inhibition concentration of prenilamine; assay type: cell-based
# Streptococcus mutans = assay: Minimum inhibition concentration of prenilamine; assay type: cell-based
# [3] = tested on: Corynebacterium diphtherise; assay: Minimum inhibition concentration of prenilamine; assay type: cell-based
# Streptococcus mitis = assay: Minimum inhibition concentration of prenilamine; assay type: cell-based
# Candida albicans = assay: Minimum inhibition concentration of prenilamine; assay type: cell-based
# Haemophilus influensae = assay: Minimum inhibition concentration of prenilamine; assay type: cell-based
# Streptococcus pneumoniae = assay: Minimum inhibition concentration of prenilamine; assay type: cell-based
smiles,measurement,setting,value
O=C(OCc1ccccc1)c1ccc(O)cc1 [Benzyl paraben],Minimum Inhibition Concentration,Fungi,75 µg/mL
same,Minimum Inhibition Concentration,Gram-positive,50 µg/mL
same,Minimum Inhibition Concentration,Gram-negative,200 µg/mL
same,Minimum Inhibition Concentration,Yeast,100 µg/mL
"Oc1c(Cl)cc(Cl)c(Cl)c1Cc1c(O)c(Cl)cc(Cl)c1Cl [Hexachlorophene, 3,3',4,4',6,6'-hexachloro-2,2'-methylene-diphenoi]",Minimum Inhibition Concentration,Gram-positive,1—10 µg/ml
"COC(=O)c1ccc(O)cc1 [Methyl paraben, p-hydroxybenzoic acid methylester]",Minimum Inhibition Concentration,Fungi,500 µg/mL
same,Minimum Inhibition Concentration,Gram-positive,800 µg/mL
same,Minimum Inhibition Concentration,Gram-negative,1000 µg/mL
same,Minimum Inhibition Concentration,Yeast,1000 µg/mL
"CC(Cc1ccccc1)NCCC(c1ccccc1)c1ccccc1 (stereo not shown) [prenilamine, 3,3-diphenylpropyl-1-methylphenethylamine]",MIC,[1],5 µg/mL
same,Nature of effect,[1],bactericide
same,solubility in water,Solubility in water,do not dissolve well in water
same,MIC,Neisseria pharingis,20 µg/mL
same,Nature of effect,Neisseria pharingis,bactericide
same,MIC,Staphylococcus epidermis,30 µg/mL
same,Nature of effect,Staphylococcus epidermis,bactericide
same,MIC,Listeria monocytogenes,10 µg/mL
same,Nature of effect,Listeria monocytogenes,bactericide
same,MIC,[2],5 µg/mL
same,Nature of effect,[2],bactericide
same,MIC,Staphylococcus aureus,30 µg/mL
same,Nature of effect,Staphylococcus aureus,bactericide
same,MIC,Streptococcus mutans,5 µg/mL
same,Nature of effect,Streptococcus mutans,bactericide
same,MIC,[3],10 µg/mL
same,Nature of effect,[3],bactericide
same,MIC,Streptococcus mitis,5 µg/mL
same,Nature of effect,Streptococcus mitis,bactericide
same,MIC,Candida albicans,100 µg/mL
same,Nature of effect,Candida albicans,fungicide
same,MIC,Haemophilus influensae,60 µg/mL
same,Nature of effect,Haemophilus influensae,bactericide
same,MIC,Streptococcus pneumoniae,30 µg/mL
same,Nature of effect,Streptococcus pneumoniae,bactericide
